The record followed here is ChEMBL document CHEMBL5050844 (2019).

For assay [1], the target named is T1, E3 ubiquitin-protein ligase CBL-B (Homo sapiens, UniProt Q13191). The experiment in a line: Inhibition of N-terminal Avi-tagged human CBL-B (36 to 427 residues) incubated with 30 nM Src kinase for 1.5 hrs followed by incubation with fluorescently labeled UbcH5B-Ub for 1 hr and measured by TR-FRET assay. A general note: In TR-FRET formats the signal depends on donor and acceptor labels being close together.
T1 sequence (Q13191 whole entry, the tested form may be a part): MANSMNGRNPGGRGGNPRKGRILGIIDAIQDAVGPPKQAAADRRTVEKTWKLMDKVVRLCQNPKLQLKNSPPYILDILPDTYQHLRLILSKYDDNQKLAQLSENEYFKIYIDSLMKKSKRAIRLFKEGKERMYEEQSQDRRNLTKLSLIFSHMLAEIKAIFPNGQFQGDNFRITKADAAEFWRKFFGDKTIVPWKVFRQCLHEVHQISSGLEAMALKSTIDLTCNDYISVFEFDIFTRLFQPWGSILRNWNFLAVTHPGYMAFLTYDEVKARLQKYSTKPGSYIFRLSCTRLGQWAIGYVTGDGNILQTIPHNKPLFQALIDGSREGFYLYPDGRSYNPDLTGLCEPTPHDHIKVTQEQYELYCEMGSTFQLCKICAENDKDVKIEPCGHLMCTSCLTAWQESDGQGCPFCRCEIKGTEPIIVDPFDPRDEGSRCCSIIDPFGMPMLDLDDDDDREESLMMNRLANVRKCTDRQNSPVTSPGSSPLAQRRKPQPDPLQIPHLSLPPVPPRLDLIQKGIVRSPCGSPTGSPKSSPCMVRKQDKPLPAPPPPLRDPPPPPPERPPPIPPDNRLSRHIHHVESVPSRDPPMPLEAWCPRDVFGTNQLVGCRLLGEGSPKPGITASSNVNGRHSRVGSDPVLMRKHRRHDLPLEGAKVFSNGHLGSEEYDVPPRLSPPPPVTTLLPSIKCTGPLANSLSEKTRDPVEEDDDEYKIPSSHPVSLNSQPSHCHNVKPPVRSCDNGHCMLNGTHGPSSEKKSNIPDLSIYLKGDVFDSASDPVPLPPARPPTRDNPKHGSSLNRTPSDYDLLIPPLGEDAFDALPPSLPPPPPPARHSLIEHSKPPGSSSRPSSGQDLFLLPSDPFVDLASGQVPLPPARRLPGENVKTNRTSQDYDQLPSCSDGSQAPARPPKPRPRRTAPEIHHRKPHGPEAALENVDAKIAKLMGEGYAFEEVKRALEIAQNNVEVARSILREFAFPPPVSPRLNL

The target of assay [2] is T1, E3 ubiquitin-protein ligase CBL-B. The experiment in a line: Binding affinity towards N-terminal biotinylated Avi-tagged human CBL-B (36 to 427 residues) measured by surface plasmon resonance assay.
Assay [3] has the same target. The experiment in a line: Inhibition of N-terminal Avi-tagged human CBL-B (36 to 427 residues) incubated with 60 nM Src kinase for 1.5 hrs followed by incubation with fluorescently labeled UbcH5B-Ub for 1 hr and measured by TR-FRET assay. In kind it is single protein.
Assay [4] in a line: Induction of anti-CD3/CD28 antibodies-stimulated human T cell activation at 4 uM assessed fold increase in IL-2 secretion measured by ELISA assay. Type of assay: functional, T cell line. A general note: An ELISA detects its analyte on a solid surface through an enzyme-linked reagent.
Assay [5] in a line: Induction of anti-CD3/CD28 antibodies-stimulated human T cell activation at 1 uM assessed fold increase in IL-2 secretion measured by ELISA assay. In kind it is functional, T cell line.
Assay [6] in a line: Induction of anti-CD3/CD28 antibodies-stimulated human T cell activation at 0.3 uM assessed fold increase in IL-2 secretion measured by ELISA assay. In kind it is functional, T cell line.
Assay [7] can be described thus: Induction of anti-CD3 antibodies-stimulated human T cell activation at 8 uM assessed fold increase in IL-2 secretion measured by ELISA assay. Also: reference of the scale not given here. Type of assay: functional, T cell line.
Assay [8] can be described thus: Induction of anti-CD3 antibodies-stimulated human T cell activation at 1 uM assessed fold increase in IL-2 secretion measured by ELISA assay. Also: reference of the scale not given here. Type of assay: functional, T cell line.
Assay [9] is described as follows: Induction of anti-CD3/CD28 antibodies-stimulated human T cell activation at 4 uM assessed fold increase in CD25 expression measured by ELISA assay. In kind it is functional, T cell line.
Assay [10] can be described thus: Induction of anti-CD3/CD28 antibodies-stimulated human T cell activation at 1 uM assessed fold increase in CD25 expression measured by ELISA assay. In kind it is functional, T cell line.
Assay [11] in a line: Induction of anti-CD3/CD28 antibodies-stimulated human T cell activation at 0.3 uM assessed fold increase in CD25 expression measured by ELISA assay. In kind it is functional, T cell line.
The nature of assay [12]: Induction of anti-CD3 antibodies-stimulated human T cell activation at 8 uM assessed fold increase in CD25 expression measured by ELISA assay. Also: reference of the scale not given here. In kind it is functional, T cell line.
Assay [13] can be described thus: Induction of anti-CD3 antibodies-stimulated human T cell activation at 1 uM assessed fold increase in CD25 expression measured by ELISA assay. Also: reference of the scale not given here. Type of assay: functional, T cell line.
Assay [14] in a line: Induction of anti-CD3 antibodies-stimulated human CD4+ T cell activation in immunocompetent mouse assessed fold increase in CD25 expression at 135 mg/kg, po administered twice a day. Also: reference of the scale not given here. Type of assay: functional.
Assay [15] can be described thus: Induction of anti-CD3 antibodies-stimulated human CD8+ T cell activation in immunocompetent mouse assessed fold increase in CD25 expression at 90 mg/kg, po administered twice a day. Also: reference of the scale not given here. Type of assay: functional.

A word on the IC50: it is the concentration that inhibits the measured activity by half. The low end stands for greater potency in that assay, the high end for weaker potency in that assay. `CC(Sc1nncn1C)c1cccc(NC(=O)c2ccc3cnccc3c2)c1` (centres undefined) gave a concentration for half-maximal inhibition (IC50) in assay [1] greater than 10 µM.

For orientation: Kd means a measure of binding affinity in units of concentration. Turning to `C[C@H](Sc1nncn1C)c1ccnc(N)c1`, the IC50 in [1] is no less than 3 µM. In assay [2], this molecule gave an equilibrium dissociation constant (Kd) greater than 10 µM.

As to `COc1cccc(C(=O)Nc2cccc(C(C)Sc3nncn3C)c2)c1` (centres undefined), in [1], the IC50 was greater than 10 µM. Moreover, the Kd in assay [2] was greater than 10 µM.

Molecule `CC(Sc1nncn1C)c1cccc(NC(=O)c2ccc3cccnc3c2)c1` (centres undefined) returned an IC50 in assay [1] greater than 10 µM.

Molecule `CC(Sc1nncn1C)c1cc(CO)cc(NC(=O)c2ccc3ccccc3n2)c1` (centres undefined) displayed an IC50 in [1] greater than 10 µM.

In assay [1], `CC(Sc1nncn1C)c1cccc(NC(=O)c2ccccn2)c1` (centres undefined) displayed an IC50 of no less than 3 µM. Also, the Kd in [2] is greater than 10 µM.

Take `C[C@H](Sc1nncn1C)c1cccc(NC(=O)c2ccc3ccccc3n2)c1`: the values for the 50% inhibitory concentration (IC50) in [1] and in assay [3] were no more than 1 µM and no more than 1000 nM, respectively. In assay [2], this molecule gave a Kd of no less than 1 µM. The “fold change (FC)” value in [4] is 1.01; in assay [5], 1.01; in assay [6] it was 1.01; in assay [7], 0.051; in assay [8], “<=0.05”; in assay [9], 1.01. Also, the “fold change (FC)” value in assay [10] is 1.01; in assay [11], 1.01; in assay [12], 0.601; in assay [13], 0.601.

The molecule `Cn1cnnc1CC1(c2cccc(N3Cc4c(cc(CN5CCC[C@H](F)C5)cc4C(F)(F)F)C3=O)c2)COC1` had an IC50 in [3] of less than 100 nM. For the same molecule, the “fold change (FC)” value is recorded as “>=7.5” in [5]; “>=7.5” in [6]; “>=0.201” in assay [8]; 1.31 in assay [10]; 1.31 in assay [11]; “>=1.001” in assay [13]. In addition, the “fold change (FC)” value in assay [14] and in [15] was 1 each time.

In assay [1], `Cc1ccc2cc(C(=O)Nc3cccc(C(C)Sc4nncn4C)c3)cnc2c1` (centres undefined) returned an IC50 greater than 10 µM.

The molecule `Cn1cnnc1[C@@H](F)C1(c2cccc(N3Cc4c(cc(CN5CCC(F)CC5)cc4C(F)(F)F)C3=O)c2)COC1` displayed an IC50 in assay [3] of less than 100 nM. The dissociation constant Kd in [2] was less than 0.1 µM. In addition, the “fold change (FC)” value in [5] is recorded as “>=7.5”; in [6] it was 5; in assay [8] it was “>=0.201”; in assay [10], 1.51; in assay [11], 1.51; in assay [13] it was “>=1.001”. For the same molecule, the “fold change (FC)” value in assay [14] stood at 2.01; in assay [15] it was 1.

As to `CN1CC2CCC(C1)N2c1cc2c(c(C(F)(F)F)c1)CN(c1cccc(C3(Cc4nncn4C)COC3)c1)C2=O`, the IC50 in assay [3] was less than 100 nM. Moreover, the “fold change (FC)” value is listed as “>=7.5” in assay [5]; “>=7.5” in assay [6]; “>=0.201” in assay [8]; 1.31 in assay [10]; 1.31 in assay [11]; “>=1.001” in assay [13]. The “fold change (FC)” value in assay [14] and in assay [15] was 1 throughout.

For `CC(Sc1nncn1C)c1cccc(NC(=O)c2ccc3ncccc3c2)c1` (centres undefined), the concentration for half-maximal inhibition (IC50) in assay [1] was greater than 10 µM. Further, in [2], the dissociation constant Kd is greater than 10 µM.

`CC(Sc1nncn1C)c1cccc(NC(=O)c2ccncn2)c1` (centres undefined) had an IC50 in assay [1] greater than 10 µM.

With `CC(Sc1nncn1C)c1cccc(NC(=O)c2ccc3ccncc3c2)c1` (centres undefined), the IC50 in assay [1] is greater than 10 µM. In addition, the Kd in [2] is greater than 10 µM.

Molecule `Cc1ccc2ccc(C(=O)Nc3cccc(C(C)Sc4nncn4C)c3)nc2n1` (centres undefined) came in with an IC50 in assay [1] greater than 10 µM.

`COc1ccc(C(=O)Nc2cccc(C(C)Sc3nncn3C)c2)cc1` (centres undefined) registered a concentration for half-maximal inhibition (IC50) in assay [1] greater than 10 µM. In assay [2], the Kd is greater than 10 µM.

On to `CC(Sc1nncn1C)c1cccc(NC(=O)c2cc3ccccc3c(=O)[nH]2)c1` (centres undefined), for which, in [1], the half-inhibitory concentration (IC50) is greater than 10 µM.

For `Cc1nc2cc(C(C)Sc3nncn3C)cc(N)c2o1` (centres undefined), the IC50 in assay [1] was no less than 3 µM. Moreover, the Kd in assay [2] was no less than 3 µM.

In turn, `Cn1cnnc1[C@H](F)C1(c2cccc(N3Cc4c(cc(CN5CCC(F)CC5)cc4C(F)(F)F)C3=O)c2)COC1` gave a concentration for half-maximal inhibition (IC50) in [3] of less than 100 nM. In addition, the Kd in assay [2] is less than 0.1 µM. The “fold change (FC)” value in assay [5] is on record as “>=7.5”; in assay [6], “>=7.5”; in assay [8], “>=0.201”; in [10] it was “>=1.76”; in assay [11], “>=1.76”; in [13] it was “>=1.001”. The results for the “fold change (FC)” value in assay [14] and in assay [15] were 1.51 and 1, respectively.

As to `COc1ccccc1C(=O)Nc1cccc(C(C)Sc2nncn2C)c1` (centres undefined), in assay [1], the IC50 was greater than 10 µM. The dissociation constant (Kd) in assay [2] was greater than 10 µM.

`C[C@@H](c1cc2c(c(C(F)(F)F)c1)CN(c1cccc(C3(Cc4nncn4C)COC3)c1)C2=O)N1CCC(C)(F)CC1`: the IC50 in assay [3] was less than 100 nM. The Kd in assay [2] was less than 0.1 µM. For the same molecule, the “fold change (FC)” value in assay [5] is listed as “>=7.5”; in assay [6], “>=7.5”; in [8], “>=0.201”; in assay [10], “>=1.76”; in assay [11] it was “>=1.76”; in assay [13], “>=1.001”. Also, the “fold change (FC)” value in assay [14] and in assay [15] was 1 in each case.

Take `CC(Sc1nncn1C)c1cccc(NC(=O)c2cnc3ccccc3c2)c1` (centres undefined): the half-inhibitory concentration (IC50) in assay [1] was no less than 3 µM.

Regarding `Cn1cnnc1CC1(c2cccc(N3Cc4c(cc(CN5C[C@H]6C[C@H]6C5)cc4C(F)(F)F)C3=O)c2)COC1`, the half-inhibitory concentration (IC50) in [3] was less than 100 nM. The “fold change (FC)” value was “>=7.5” in assay [4]; “>=7.5” in assay [5]; “>=7.5” in [6]; “>=0.201” in [7]; “>=0.201” in assay [8]; 1.51 in assay [9]. In addition, the “fold change (FC)” value was 1.31 in [10]; 1.31 in assay [11]; “>=1.001” in assay [12]; “>=1.001” in assay [13]; 1 in [14]; 1 in assay [15].

In assay [3], `Cn1cnnc1CC1(c2cccc(NC(=O)c3cc(CN4CC[C@H](F)C4)cc(C4CC4)n3)c2)COC1` yielded an IC50 of less than 100 nM. Moreover, the dissociation constant (Kd) in assay [2] was less than 0.1 µM. The “fold change (FC)” value in assay [5] is recorded as “>=7.5”; in [6], “>=7.5”; in assay [8], “>=0.201”; in assay [10], 1.51; in [11] it was 1.51; in assay [13] it was “>=1.001”. Further, the “fold change (FC)” value worked out at 1.51 in [14] and 1 in [15].

Take `CC(Sc1nncn1C)c1cccc(NC(=O)c2ccc3ccccc3n2)c1` (centres undefined): the dissociation constant Kd in assay [1] is no less than 1000 nM; in [2], no less than 1 µM. This molecule also yielded a concentration for half-maximal inhibition (IC50) in [3] of no more than 1000 nM. Moreover, the “fold change (FC)” value in [4] was 2.51; in assay [5], 1.01; in assay [6] it was 1.01; in assay [7], 0.051; in assay [8], “<=0.05”; in [9] it was 1.01. Besides, the “fold change (FC)” value in assay [10] was “<=1”; in assay [11], “<=1”; in assay [12] it was 0.601; in assay [13] it was “<=0.6”.

On to `Cn1cnnc1CC1(c2cccc(N3Cc4c(cc(CN5CC6(CC6)C5)cc4C(F)(F)F)C3=O)c2)COC1`, for which, in assay [3], the half-maximal inhibitory concentration (IC50) is less than 100 nM. The “fold change (FC)” value is “>=7.5” in assay [5]; “>=7.5” in assay [6]; “>=0.201” in assay [8]; 1.31 in [10]; 1.31 in assay [11]; “>=1.001” in assay [13]. Moreover, the entries for the “fold change (FC)” value in [14] and in [15] were 1.51 and 1, respectively.

Consider `C[C@@H](c1cc2c(c(C(F)(F)F)c1)CN(c1cccc(C3(Cc4nncn4C)COC3)c1)C2=O)N1CC2CC2C1` (some centres undefined), for which the half-maximal inhibitory concentration (IC50) in assay [3] is less than 100 nM. Moreover, the “fold change (FC)” value in [5] was “>=7.5”; in assay [6], “>=7.5”; in assay [8] it was “>=0.201”; in assay [10], 1.31; in assay [11], 1.31; in assay [13], “>=1.001”. Further, the “fold change (FC)” value in assay [14] and in assay [15] was 1 each time.
